Reference: patent publication US20120190719A1, “METHODS OF TREATING MOTOR DISORDERS WITH ALPHA-2B ANDRENERGIC RECEPTOR AGONISTS” (ALLERGAN, INC., priority 2009, published 2012)
Marks after values point to notes of the source that are not given here.

Tested on: C57B/6 male mice
Experiment: Defensive burying (marble burying task)
Type: in vivo
Details: WT mice; 300 ug/kg IP 30 minutes prior to defensive burying testing; marbles buried more than 2/3 after 30 minutes; N = 6/group; vehicle 46.40%
Text: The usefulness of alpha-2B receptor agonists in treating compulsive disorders are exemplified in a widely-used rodent model of compulsive behavior, the marble burying task. Absence of alpha2B receptor activity, either following treatment with an alpha2B receptor antagonist or in alpha2B receptor knockout mice, results in increased compulsive behavior in the marble burying task. […] Two alpha2B agonists used by the inventors, each belonging to a different compound class, are: Compound A, an imidazole thione, and Compound B, an imidazole amine.
Defensive burying: C57B/6 male mice (25-30 g) individually placed into plexiglass mouse cages filled with standard mouse bedding in their housing room. Each cage contained 7 small marbles (diameter 1 cm) and 7 larger marbles (diameter 1.5 cm). Mice remained in the cages for 30 minutes, after which time they were removed from their home cage and the number of marbles buried more than ⅔ was counted. Animals in treatment groups (Table 3) were administered compound IP (1 ml/kg) 30 min prior to testing.
For Table 2, data were evaluated by One-way ANOVA for overall effect of genotype [F(4,57)=4.155; P=0.0053]. Because the 2B WT is the only control for the 2B KO, an unpaired T-test was used to compare differences between 2B WT and 2B KO. For Table 3, data were evaluated by unpaired T-Test.

SMILES: CN1CCc2c(C#N)c(N)n(C)c(=S)c2C1 [Compound C]
- % Buried: 61.90%**
